Test results: US9073895B2 (Boehringer Ingelheim International GmbH, priority 2010, dated 2015)

What was measured:
[1] = test system: biomarkers for myocardial infarction risk; conditions: clinical trial; cited from earlier work
[2] = target: T1, recombinant human FLAP protein (Homo sapiens, UniProt P20292); assay: FLAP binding assay (SPA, displacement of [125I]L-691,831); conditions: membranes of sf9 cells expressing human FLAP, [125I]L-691,831 probe; read-out: hFLAP binding IC50
T1 construct: made in house; host or cells: Sf9 insect cells (membrane fraction, 100,000 x g pellet)
T1 sequence (P20292 1-161): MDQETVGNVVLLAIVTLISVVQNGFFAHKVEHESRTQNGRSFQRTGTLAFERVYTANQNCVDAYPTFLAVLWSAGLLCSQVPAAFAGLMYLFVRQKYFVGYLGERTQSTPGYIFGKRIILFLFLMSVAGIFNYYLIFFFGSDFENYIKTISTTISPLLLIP
How it was run: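 Membranes from sf9 cells expressing human FLAP (5 μg/well) were bound to WGA SPA beads (200 μg/well). Nonspecific binding was defined with 10 μM unlabelled L-691,831.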

[3] = test system: synthesis of LTB4 in human whole blood; assay: Human whole blood LTB4 production inhibition assay; assay type: cell-based; conditions: heparinized human whole blood, calcimycin 20 μM, plasma LTB4; read-out: HuWB IC50
How it was run: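 Heparinized human whole blood was preincubated with compound for 15 min at 37° C, then stimulated with calcimycin (20 μM final, in PBS pH 7.4) for a further 30 min at 37° C. Plasma LTB4 was quantified by antibody-based homogeneous time-resolved fluorescence.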

human glomerulonephritis = conditions: clinical trial; cited from earlier work
[4] = test system: apoE/LDL-R double knockout mice; conditions: oral dosing, high-fat diet from 2 months of age to 6 months; cited from earlier work
ApoExCD4dnT RII mice = conditions: infusion, treated for four weeks; cited from earlier work

| IC50 [2] | IC50 [3] | Structure (SMILES) | also measured |
| --- | --- | --- | --- |
| – | – | O=C(O)[C@@H](c1ccc(OCc2ccc3ccccc3n2)cc1)C1CCCC1 [DG-031] | effect on biomarkers for myocardial infarction risk [1]: dose-dependent suppression of several biomarkers |
| 0.00825 µM | 0.389 µM | COc1ccc(NC(=O)C2(c3ccc(-c4cnc(N)nc4)cc3)CCC2)nc1 [Example 217, 1-[4-(2-aminopyrimidin-5-yl)phenyl]-N-(5-methoxypyridin-2-yl)cyclobutanecarboxamide] | – |
| 0.0325 µM | 0.959 µM | Cn1nccc1-c1ccc(NC(=O)C2(c3ccc(-c4cnc(N)nc4)cc3)CCOCC2)nc1 [Example 218, 4-[4-(2-aminopyrimidin-5-yl)phenyl]-N-[5-(1-methyl-1H-pyrazol-5-yl)pyridin-2-yl]tetrahydro-2H-pyran-4-carboxamide] | – |
| 0.29 µM | > 3 µM | Nc1ncc(-c2ccc(C3(C(=O)Nc4ccc(O)nc4)CCC3)cc2)cn1 [Example 221, 1-[4-(2-aminopyrimidin-5-yl)phenyl]-N-(6-hydroxypyridin-3-yl)cyclobutanecarboxamide] | – |
| 0.0435 µM | 1.23 µM | Cn1ccc(NC(=O)C2(c3ccc(-c4cnc(N)nc4)cc3)CCC2)n1 [Example 222, 1-[4-(2-aminopyrimidin-5-yl)phenyl]-N-(1-methyl-1H-pyrazol-3-yl)cyclobutanecarboxamide] | – |
| 0.00715 µM | 1.67 µM | Cc1nc(-c2ccc(NC(=O)C3(c4ccc(-c5cnc(N)nc5)cc4)CCCC3)nc2)cs1 [Example 223] | – |
| 0.03 µM | 0.718 µM | Cc1nccn1-c1ccc(NC(=O)C2(c3ccc(-c4cnc(N)nc4)cc3)CCOCC2)cc1 [Example 224, 4-[4-(2-aminopyrimidin-5-yl)phenyl]-N-[4-(2-methyl-1H-imidazol-1-yl)phenyl]tetrahydro-2H-pyran-4-carboxamide] | – |
| 0.078 µM | 1.37 µM | Nc1ncc(-c2ccc(C3(C(=O)Nc4cccnn4)CCC3)cc2)cn1 [Example 225, 1-[4-(2-aminopyrimidin-5-yl)phenyl]-N-(pyridazin-3-yl)cyclobutanecarboxamide] | – |
| 0.0405 µM | > 3 µM | CC(C)C(C)(C(=O)Nc1ccncc1)c1ccc(-c2ccc(N(C)C)nc2)cc1 (centres unmarked) [Example 227, 2-{4-[6-(dimethylamino)pyridin-3-yl]phenyl}-2,3-dimethyl-N-(pyridin-4-yl)butanamide] | – |
| 0.012 µM | 1.1 µM | CCC(C)(C(=O)Nc1ccc(-c2csc(C)n2)cn1)c1ccc(-c2cnc(N)nc2)cc1 (centres unmarked) [Example 228, 2-[4-(2-aminopyrimidin-5-yl)phenyl]-2-methyl-N-[5-(2-methyl-1,3-thiazol-4-yl)pyridin-2-yl]butanamide] | – |
| 0.00665 µM | 0.153 µM | Cc1nccn1-c1ccc(NC(=O)C2(c3ccc(-c4cnc(N)nc4)cc3)CCC2)cc1 [Example 229, 1-[4-(2-aminopyrimidin-5-yl)phenyl]-N-[4-(2-methyl-1H-imidazol-1-yl)phenyl]cyclobutanecarboxamide] | – |
| 0.0215 µM | 0.697 µM | Nc1ncc(-c2ccc(C3(C(=O)Nc4ccncc4)CCCC3)cc2)cn1 [Example 230, 1-[4-(2-aminopyrimidin-5-yl)phenyl]-N-(pyridin-4-yl)cyclopentanecarboxamide] | – |
| 0.084 µM | 1.21 µM | CCC(C)(C(=O)Nc1ccncc1)c1ccc(-c2cnc(N)nc2)cc1 (centres unmarked) [Example 231, 2-[4-(2-aminopyrimidin-5-yl)phenyl]-2-methyl-N-(pyridin-4-yl)butanamide] | – |
| 0.00745 µM | 0.151 µM | N#Cc1ccc(NC(=O)C2(c3ccc(-c4cnc(N)nc4)cc3)CCC2)nc1 [Example 232, 1-[4-(2-aminopyrimidin-5-yl)phenyl]-N-(5-cyanopyridin-2-yl)cyclobutanecarboxamide] | – |
| 0.0065 µM | 0.16 µM | CS(=O)(=O)c1ccc(NC(=O)C2(c3ccc(-c4cnc(N)nc4)cc3)CCC2)cc1 [Example 233, 1-[4-(2-aminopyrimidin-5-yl)phenyl]-N-[4-(methylsulfonyl)phenyl]cyclobutane-carboxamide] | – |
| 0.0325 µM | 0.858 µM | CN1CCc2nc(NC(=O)C3(c4ccc(-c5cnc(N)nc5)cc4)CCC3)sc2C1 [Example 234, 1-[4-(2-aminopyrimidin-5-yl)phenyl]-N-(5-methyl-4,5,6,7-tetrahydro[1,3]thiazolo[5,4-c]pyridin-2-yl)cyclobutanecarboxamide] | – |
| 0.0054 µM | 0.627 µM | Cc1nc(-c2ccc(NC(=O)C(C)(C)c3ccc(-c4cnc(N)nc4)cc3)nc2)cs1 [Example 235, 2-[4-(2-aminopyrimidin-5-yl)phenyl]-2-methyl-N-[5-(2-methyl-1,3-thiazol-4-yl)pyridin-2-yl]propanamide] | – |
| 0.00345 µM | 0.29 µM | N#Cc1cc(NC(=O)C2(c3ccc(-c4cnc(N)nc4)cc3)CCC2)ccn1 [Example 236, 1-[4-(2-aminopyrimidin-5-yl)phenyl]-N-(2-cyanopyridin-4-yl)cyclobutanecarboxamide] | – |
| 0.0019 µM | 0.043 µM | CCOC(=O)c1ccc(NC(=O)C2(c3ccc(-c4cnc(N)nc4)cc3)CCC2)nc1 [Example 237, ethyl 6-[({1-[4-(2-aminopyrimidin-5-yl)phenyl]cyclobutyl}carbonyl)amino]pyridine-3-carboxylate] | – |
| 0.00235 µM | 0.0745 µM | Nc1ncc(-c2ccc(C3(C(=O)Nc4ccc(-c5ccncc5)cn4)CCC3)cc2)cn1 [Example 238] | – |
| 0.00215 µM | 0.144 µM | Nc1ncc(-c2ccc(C3(C(=O)Nc4ccc(-c5cccnc5)cn4)CCC3)cc2)cn1 [Example 239, 1-[4-(2-aminopyrimidin-5-yl)phenyl]-N-(3,3'-bipyridin-6-yl)cyclobutanecarboxamide] | – |
| 0.0056 µM | 0.407 µM | N#Cc1ccc(NC(=O)C2(c3ccc(-c4cnc(N)nc4)cc3)CCC2)cn1 [Example 241, 1-[4-(2-aminopyrimidin-5-yl)phenyl]-N-(6-cyanopyridin-3-yl)cyclobutanecarboxamide] | – |
| 0.0033 µM | 0.046 µM | Nc1ncc(-c2ccc(C3(C(=O)Nc4ccc(N5CCOCC5)c(Cl)c4)CCC3)cc2)cn1 [Example 245, 1-[4-(2-aminopyrimidin-5-yl)phenyl]-N-[3-chloro-4-(morpholin-4-yl)phenyl]cyclobutanecarboxamide] | – |
| 0.0032 µM | 0.0607 µM | N#Cc1ccc(NC(=O)C2(c3ccc(-c4cnc(N)nc4)cc3)CCC2)cc1 [Example 250, 1-[4-(2-aminopyrimidin-5-yl)phenyl]-N-(4-cyanophenyl)cyclobutanecarboxamide] | – |
| 0.0074 µM | 0.228 µM | CN1CCN(c2cc(NC(=O)C3(c4ccc(-c5cnc(N)nc5)cc4)CCC3)ccn2)CC1 [Example 252, 1-[4-(2-aminopyrimidin-5-yl)phenyl]-N-[2-(4-methylpiperazin-1-yl)pyridin-4-yl]cyclobutanecarboxamide] | – |
| 0.0018 µM | 0.271 µM | Nc1ncc(-c2ccc(C3(C(=O)Nc4nc(-c5cccnc5)cs4)CCC3)cc2)cn1 [Example 253, 1-[4-(2-aminopyrimidin-5-yl)phenyl]-N-[4-(pyridin-3-yl)-1,3-thiazol-2-yl]cyclobutanecarboxamide] | – |
| 0.0016 µM | 0.111 µM | Nc1ncc(-c2ccc(C3(C(=O)Nc4nc(-c5ccncc5)cs4)CCC3)cc2)cn1 [Example 254, 1-[4-(2-aminopyrimidin-5-yl)phenyl]-N-[4-(pyridin-4-yl)-1,3-thiazol-2-yl]cyclobutanecarboxamide] | – |
| 0.0025 µM | 0.144 µM | Cn1cc(-c2ccc(NC(=O)C3(c4ccc(-c5cnc(N)nc5)cc4)CCC3)nc2)cn1 [Example 255, 1-[4-(2-aminopyrimidin-5-yl)phenyl]-N-[5-(1-methyl-1H-pyrazol-4-yl)pyridin-2-yl]cyclobutanecarboxamide] | – |
| – | – | CC(C)(C)Sc1c(CC(C)(C)C(=O)O)n(Cc2ccc(Cl)cc2)c2ccc(OCc3ccc4ccccc4n3)cc12 [MK-591] | effect on proteinuria (human glomerulonephritis): reduce proteinuria |
| – | – | CC(C)c1ccc2c(c1)c(SC(C)(C)C)c(CC(C)(C)C(=O)O)n2Cc1ccc(Cl)cc1 [MK-886] | decrease in plaque coverage in the aorta [4]: 56%; decrease in plaque coverage in the aortic root [4]: 43%; decrease in plaque area in the aortic root (ApoExCD4dnT RII mice): ~40% |
